Data on ten molecules can be found in patent publication US20250074873A1, “COMPOUNDS” (Psylo Pty Ltd, priority 2021, published 2025).

Format in all cases: cell-based
One test deals with T1, 5-HT2B receptor (Homo sapiens, UniProt P41595).
T1 construct: host or cells: CHO-K1
Kind of test: FLIPR Ca2+ flux functional assay, 5-HT2B agonist activity. The settings on record: for Emax: agonist activity, Ca2+ flux, stably transfected CHO-K1 cells. The procedure:
(§1) Functional Assays 5-HT2A, 5-HT2B and 5-HT2C Receptors
(§2) Activity at 5-HT2A, 5-HT2B and 5-HT2C receptors was determined using a FLIPR Ca2+ flux assay at WuXi AppTec Co. Ltd. (Hong Kong) Discovery Biology Unit according to their standard protocols. Briefly, stably transfected cells expressing the receptor of interest (HEK293 for 5-HT2A and 5-HT2C; CHO-K1 for 5-HT2B) were grown and plated in a 384 well plate and incubated at 37° C. and 5% 002 overnight. A 250 mM stock solution of probenecid in FLIPR calcium assay buffer (10 mL) was freshly prepared and combined with a fluorescent dye (Fluo-4 Direct) to give a final assay concentration of 2.5 mM. Reference compounds were 4-fold serially diluted and the screening compounds were 3-fold serially diluted in 100% DMSO for 10 points using Agilent Bravo, and 750 nL was added to a 384 well compound plate using Echo along with 30 μL assay buffer. The fluorescent dye was then added to the assay plate along with assay buffer to a final volume of 40 μL. The cell plate was incubated for […] at 37° C. and 5% 002 and placed into the FLIPR Tetra along with the compound plate. 10 μL of references and compounds were then transferred from the compound plate into the cell plate and the fluorescent signal was read.
In general terms: Calcium flux is commonly read through the fluorescence of an indicator in the cells.

For the next test, the target named is T2, 5-HT2C receptor (Homo sapiens, UniProt P28335).
T2 construct: host or cells: HEK293
T2 sequence (P28335 33-458): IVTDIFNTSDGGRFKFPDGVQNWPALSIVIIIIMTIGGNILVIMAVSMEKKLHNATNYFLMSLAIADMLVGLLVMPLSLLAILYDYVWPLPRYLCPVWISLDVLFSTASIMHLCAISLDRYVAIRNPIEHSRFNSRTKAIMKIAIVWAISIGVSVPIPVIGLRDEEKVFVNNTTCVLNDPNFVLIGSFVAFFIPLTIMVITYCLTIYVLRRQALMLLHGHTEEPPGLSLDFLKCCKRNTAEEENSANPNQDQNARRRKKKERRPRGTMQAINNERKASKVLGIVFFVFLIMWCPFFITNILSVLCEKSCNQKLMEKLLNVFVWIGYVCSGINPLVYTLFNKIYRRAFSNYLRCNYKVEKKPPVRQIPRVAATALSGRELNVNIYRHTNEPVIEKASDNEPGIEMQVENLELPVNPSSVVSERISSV
The test is described as follows: FLIPR Ca2+ flux functional assay, 5-HT2C agonist activity. To be noted: for Emax: agonist activity, Ca2+ flux, stably transfected HEK293 cells. The procedure: as §1, §2

The target in the next test is T3, 5-HT2A receptor (Homo sapiens, UniProt P28223).
T3 construct: host or cells: HEK293
Kind of test: FLIPR Ca2+ flux functional assay, 5-HT2A agonist activity. To be noted: for Emax: agonist activity, Ca2+ flux, stably transfected HEK293 cells. The procedure:
as §1, §2

T3 sequence (P28223 whole entry): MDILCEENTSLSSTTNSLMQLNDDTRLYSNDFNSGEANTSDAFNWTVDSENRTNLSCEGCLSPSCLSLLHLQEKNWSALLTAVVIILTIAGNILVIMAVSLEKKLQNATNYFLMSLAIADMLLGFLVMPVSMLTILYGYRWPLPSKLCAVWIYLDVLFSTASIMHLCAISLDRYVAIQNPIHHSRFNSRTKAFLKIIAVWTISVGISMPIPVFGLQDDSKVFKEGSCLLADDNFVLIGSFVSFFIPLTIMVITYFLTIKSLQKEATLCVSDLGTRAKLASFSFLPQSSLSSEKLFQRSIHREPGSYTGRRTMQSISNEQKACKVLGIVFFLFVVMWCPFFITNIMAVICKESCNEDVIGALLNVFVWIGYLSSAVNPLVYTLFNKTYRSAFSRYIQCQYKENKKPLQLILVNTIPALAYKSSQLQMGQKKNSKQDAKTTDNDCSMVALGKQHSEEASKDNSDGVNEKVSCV
T1 sequence (P41595 whole entry): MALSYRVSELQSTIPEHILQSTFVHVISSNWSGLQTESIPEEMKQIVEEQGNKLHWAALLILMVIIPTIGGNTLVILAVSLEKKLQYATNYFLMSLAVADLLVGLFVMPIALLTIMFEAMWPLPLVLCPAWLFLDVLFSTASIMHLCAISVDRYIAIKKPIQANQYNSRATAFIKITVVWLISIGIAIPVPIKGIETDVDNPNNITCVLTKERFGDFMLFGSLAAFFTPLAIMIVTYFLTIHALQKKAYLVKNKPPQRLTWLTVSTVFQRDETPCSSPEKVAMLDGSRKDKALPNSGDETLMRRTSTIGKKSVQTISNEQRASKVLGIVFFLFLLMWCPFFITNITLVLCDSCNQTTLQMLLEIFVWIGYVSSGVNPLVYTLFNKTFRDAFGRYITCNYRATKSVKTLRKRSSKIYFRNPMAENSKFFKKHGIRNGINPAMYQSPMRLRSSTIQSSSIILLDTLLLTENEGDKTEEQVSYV

What is called EC50 is the concentration that produces a half-maximal response. Low values mean an effect from little substance, high ones a need for much substance. The term Emax denotes the maximal effect, on the per cent scale that the assay sets. For the molecule `CN(C)CCc1c[nH]c2cccc(OC(F)(F)F)c12` [Compound P-4, N,N-dimethyl-2-(4-(trifluoromethoxy)-1H-indol-3-yl)ethan-1-amine], the EC50 at 5-HT2B receptor was greater than 10000 nM; on 5-HT2C receptor, 15.9 nM; on 5-HT2A receptor, 52.8 nM. The Emax on 5-HT2B receptor is -0.97%; on 5-HT2C receptor, 66.6%; at 5-HT2A receptor, 34.6%.
On to `CN(C)CCc1c[nH]c2ccc(OC(F)(F)F)cc12` [Compound P-5, N,N-dimethyl-2-(5-(trifluoromethoxy)-1H-indol-3-yl)ethan-1-amine], for which the EC50 at 5-HT2B receptor is greater than 10000 nM; on 5-HT2C receptor, 520 nM; at 5-HT2A receptor, 171 nM. Moreover, the Emax on 5-HT2B receptor was -0.27%; at 5-HT2C receptor, 55.1%; on 5-HT2A receptor, 40.5%.
Turning to `CN(C)CCc1c[nH]c2ccc(C(F)(F)F)cc12` [Compound P-15, N,N-dimethyl-2-(5-(trifluoromethyl)-1H-indol-3-yl)ethan-1-amine], the EC50 on 5-HT2B receptor was greater than 10000 nM; at 5-HT2C receptor it was 89.7 nM; at 5-HT2A receptor, 186 nM. For the same molecule, the figures for the Emax at 5-HT2B receptor, at 5-HT2C receptor and at 5-HT2A receptor were 7.41%, 88.8% and 28.7%, respectively.
Take `CCC(C)N(C)CCc1c[nH]c2ccc(OC)cc12` (stereo not drawn) [Compound P-16, N-(2-(5-methoxy-1H-indol-3-yl)ethyl)-N-methylbutan-2-amine]: the results for the EC50 at 5-HT2B receptor, on 5-HT2C receptor and on 5-HT2A receptor were greater than 10000 nM, 553 nM and 36.9 nM, respectively. Further, the results for the Emax on 5-HT2B receptor, at 5-HT2C receptor and at 5-HT2A receptor were -1.2%, 59.5% and 58.5%, respectively.
Consider `CCCN(CCc1c[nH]c2ccc(OC)cc12)C(C)C` [Compound P-17, N-isopropyl-N-(2-(5-methoxy-1H-indol-3-yl)ethyl)propan-1-amine], for which the results for the EC50 at 5-HT2B receptor, at 5-HT2C receptor and on 5-HT2A receptor were 138 nM, 185 nM and 13.8 nM, respectively. The Emax on 5-HT2B receptor stood at 69.2%; at 5-HT2C receptor, 82.1%; on 5-HT2A receptor, 89%.
For `CCN(CCc1c[nH]c2ccc(OC)cc12)CC(C)C` [Compound P-18, N-ethyl-N-(2-(5-methoxy-1H-indol-3-yl)ethyl)-2-methylpropan-1-amine], the EC50 at 5-HT2B receptor worked out at 867 nM; on 5-HT2C receptor it was 1130 nM; at 5-HT2A receptor it was 47.9 nM. For the same molecule, the Emax at 5-HT2B receptor turned out to be 51.8%; at 5-HT2C receptor, 68.9%; on 5-HT2A receptor, 79.5%.
For the molecule `CCC(C)N(CC)CCc1c[nH]c2ccc(OC)cc12` (stereo not drawn) [Compound P-19, N-ethyl-N-(2-(5-methoxy-1H-indol-3-yl)ethyl)butan-2-amine], the EC50 on 5-HT2B receptor was 1400 nM; at 5-HT2C receptor, 933 nM; on 5-HT2A receptor, 33.3 nM. Besides, the Emax on 5-HT2B receptor came to 44.5%; at 5-HT2C receptor, 76.8%; on 5-HT2A receptor it was 70.3%.
As to `CCC(C)N(C)CCc1c[nH]c2ccccc12` (stereo not drawn) [Compound P-20, N-(2-(1H-indol-3-yl)ethyl)-N-methylbutan-2-amine], the EC50 was greater than 10000 nM on 5-HT2B receptor, 646 nM at 5-HT2C receptor and 91.2 nM at 5-HT2A receptor. Further, the figures for the Emax on 5-HT2B receptor, at 5-HT2C receptor and on 5-HT2A receptor were 0.83%, 58.8% and 16.1%, respectively.
As for `CCC(C)N(CC)CCc1c[nH]c2ccccc12` (stereo not drawn) [Compound P-21, N-(2-(1H-indol-3-yl)ethyl)-N-ethylbutan-2-amine], the EC50 was greater than 10000 nM on 5-HT2B receptor, 974 nM at 5-HT2C receptor and 148 nM on 5-HT2A receptor. Moreover, the Emax at 5-HT2B receptor stood at 37.2%; on 5-HT2C receptor it was 61.5%; on 5-HT2A receptor, 71.5%.
As for `CCN(CCc1c[nH]c2ccccc12)CC(C)C` [Compound P-22, N-(2-(1H-indol-3-yl)ethyl)-N-ethyl-2-methylpropan-1-amine], the EC50 on 5-HT2B receptor is 1140 nM; on 5-HT2C receptor, 960 nM; on 5-HT2A receptor, 389 nM. Besides, the Emax is 28% on 5-HT2B receptor, 58.4% on 5-HT2C receptor and 52.8% on 5-HT2A receptor.
